# Test results from patent US9732075B2, “Benzimidazole-proline derivatives” (IDORSIA PHARMACEUTICALS LTD, priority 2012, dated 2017).
# Legend:
# human orexin-2 receptor = human orexin-2 receptor (Homo sapiens (Human), UniProt O43614); experiment: In vitro assay: intracellular calcium measurements (FLIPR), antagonistic activity; format: cell-based; conditions: CHO cells expressing human orexin-2 receptor, orexin-A agonist, geometric mean, read-out: IC50 Ox2
# Summary of the method: (§1)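 IC50s are geometric means, possibly reference-normalized, from FLIPR calcium peaks in CHO cells bearing human orexin-1 or orexin-2 receptor. Fluo-4 AM/probenecid-loaded cells received antagonist for 120 min before challenge with orexin-A (final 3 nM, ~EC70), with responses compared against vehicle controls.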
# human orexin-1 receptor = human orexin-1 receptor (Homo sapiens (Human), UniProt O43613); experiment: as above; format: cell-based; conditions: CHO cells expressing human orexin-1 receptor, orexin-A agonist, geometric mean, read-out: IC50 Ox1
# Summary of the method: as §1
# Chain of human orexin-1 receptor (O43613 whole entry): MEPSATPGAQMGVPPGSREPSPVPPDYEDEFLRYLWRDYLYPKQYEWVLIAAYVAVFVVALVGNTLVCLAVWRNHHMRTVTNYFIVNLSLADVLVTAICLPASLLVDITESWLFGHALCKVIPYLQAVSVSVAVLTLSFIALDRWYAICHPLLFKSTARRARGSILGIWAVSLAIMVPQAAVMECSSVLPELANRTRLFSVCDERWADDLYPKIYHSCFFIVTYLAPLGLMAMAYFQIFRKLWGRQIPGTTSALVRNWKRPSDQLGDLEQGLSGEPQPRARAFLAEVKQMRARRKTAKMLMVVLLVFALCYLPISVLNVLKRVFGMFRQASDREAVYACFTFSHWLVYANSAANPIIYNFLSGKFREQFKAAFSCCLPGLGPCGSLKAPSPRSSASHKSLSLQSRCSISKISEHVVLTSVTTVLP
# Chain of human orexin-2 receptor (O43614 whole entry): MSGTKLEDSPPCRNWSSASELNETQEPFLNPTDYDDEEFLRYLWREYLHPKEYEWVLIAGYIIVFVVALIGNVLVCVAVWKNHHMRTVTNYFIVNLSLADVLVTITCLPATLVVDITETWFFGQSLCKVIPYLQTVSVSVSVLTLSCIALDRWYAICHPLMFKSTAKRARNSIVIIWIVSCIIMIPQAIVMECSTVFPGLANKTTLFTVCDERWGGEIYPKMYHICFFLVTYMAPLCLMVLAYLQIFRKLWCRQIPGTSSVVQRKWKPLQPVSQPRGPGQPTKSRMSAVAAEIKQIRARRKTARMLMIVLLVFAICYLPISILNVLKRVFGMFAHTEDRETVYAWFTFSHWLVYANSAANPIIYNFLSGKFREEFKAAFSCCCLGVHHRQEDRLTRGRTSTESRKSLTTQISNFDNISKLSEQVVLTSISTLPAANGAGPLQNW
IC50 (human orexin-2 receptor) [nM],IC50 (human orexin-1 receptor) [nM],Compound
131,425,Cc1nc(C(=O)N2CC(F)(F)C[C@H]2c2nc3c(C)cccc3[nH]2)c(-c2ccccc2)s1 [Ex. 2.4]
19,162,C=C1C[C@@H](c2nc3cc(C(C)(C)C)ccc3[nH]2)N(C(=O)c2cc(C)ccc2-n2cccn2)C1 [Ex. 6.171]
4800,26,Cc1nc(C(=O)N2CC[C@H](C)[C@H]2c2nc3c(C(F)(F)F)cccc3[nH]2)c(-c2ccc(F)c(F)c2)s1 [Ex. 4.154]
1060,3,Cc1cc2[nH]c([C@@H]3[C@@H](C)CCN3C(=O)c3c(F)cccc3-c3ccccc3)nc2cc1Cl [Ex. 4.112]
110,763,CSc1ccc2nc([C@@H]3CCCN3C(=O)c3cc(C(F)(F)F)ccc3-n3nccn3)[nH]c2c1 [Ex. 1.151]
54,59,COc1cccc(-c2ccccc2C(=O)N2CCC[C@@]2(C)c2nc3cc(C)c(C)cc3[nH]2)c1 [Ex. 5.101]
677,99,COc1cc2nc([C@@H]3[C@@H](C)CCN3C(=O)c3sc(C)nc3-c3ccc(C)cc3)[nH]c2cc1OC [Ex. 4.51]
103,239,C=C1C[C@@H](c2nc3cc(Cl)c(C(F)(F)F)cc3[nH]2)N(C(=O)c2cc(OC(F)(F)F)ccc2-n2nccn2)C1 [Ex. 6.185]
6,3,Cc1cc(C(=O)N2CCC[C@@]2(C)c2nc3cc(C)c(C)cc3[nH]2)c(-n2nccn2)cc1C [Ex. 5.58]
57,74,CO[C@@H]1C[C@@H](c2nc3ccc(Cl)c(C)c3[nH]2)N(C(=O)c2ccccc2-c2ccccc2)C1 [Ex. 3.39]
22,125,COc1ccc2nc([C@@H]3CCCN3C(=O)c3ccccc3-c3ccc(C)c(C)c3)[nH]c2c1 [Ex. 1.26]
3,1,Cc1nc(C(=O)N2CCC[C@@]2(C)c2nc3c(C)c(Cl)ccc3n2C)c(-c2cccc(Cl)c2)s1 [Ex. 7.33]
5,9,CO[C@@H]1C[C@@H](c2nc3c(C)cccc3[nH]2)N(C(=O)c2nc(C)sc2-c2cccc(Cl)c2)C1 [Ex. 3.7]
9930,68,Cc1nc(C(=O)N2CC[C@H](C)[C@H]2c2nc3cc(C#N)ccc3[nH]2)c(-c2cccc(Cl)c2)s1 [Ex. 4.8]
76,11,Cc1ccc(-n2nccn2)c(C(=O)N2CCC[C@@]2(C)c2nc3c(C(F)(F)F)cccc3[nH]2)c1 [Ex. 5.17]
14,3,Cc1ccc(-n2cccn2)c(C(=O)N2CCC[C@@]2(C)c2nc3c(C)c(Cl)ccc3[nH]2)c1 [Ex. 5.43]
147,63,CSc1cccc2nc([C@@H]3CCCN3C(=O)c3nc(C)sc3-c3cccc(F)c3)[nH]c12 [Ex. 1.65]
852,149,Cc1ccc(-n2nccn2)c(C(=O)N2CCC[C@@]2(C)c2nc3c(F)c(F)ccc3[nH]2)n1 [Ex. 5.205]
32,4,Cc1ccc(C(=O)N2CC[C@H](C)[C@H]2c2nc3cc(C)c(C)cc3[nH]2)c(-n2nccn2)c1 [Ex. 4.82]
76,1970,C=C1C[C@@H](c2nc3cc(OC)ccc3[nH]2)N(C(=O)c2ccccc2-c2csc(C)n2)C1 [Ex. 6.21]
84,42,Cc1ccc(-n2cccn2)c(C(=O)N2CCC[C@@]2(C)c2nc3cc(C)c(C)cc3[nH]2)c1 [Ex. 5.59]
835,171,Cc1nc(C(=O)N2CCCC2c2nc3cc(OC(F)(F)F)ccc3[nH]2)c(-c2cccc(Cl)c2)s1 (centres unmarked) [Ex. 1.108]
8,3,Cc1nc(C(=O)N2CCC[C@@]2(C)c2nc3c(C)c(C)c(Br)cc3[nH]2)c(-c2ccc(F)cc2)s1 [Ex. 5.276]
219,20,Cc1ccc(-n2cccn2)c(C(=O)N2CCC[C@@]2(C)c2nc3cc(F)c(Br)cc3[nH]2)c1 [Ex. 5.128]
121,737,CSc1ccc2nc([C@@H]3CCCN3C(=O)c3cncnc3-c3ccc(Cl)c(Cl)c3)[nH]c2c1 [Ex. 1.52]
